Where “and” joins values, the source holds several entries; their conditions need not be identical. Equal values may be shown once.
Experiments:
TGR [1] = target: T1, TGR (Schistosoma mansoni, UniProt Q962Y6); test: NADPH dependence of inhibition; type: biochemical; settings: panel b, replicates
T1 construct: made in house
T1 sequence (Q962Y6 1-598): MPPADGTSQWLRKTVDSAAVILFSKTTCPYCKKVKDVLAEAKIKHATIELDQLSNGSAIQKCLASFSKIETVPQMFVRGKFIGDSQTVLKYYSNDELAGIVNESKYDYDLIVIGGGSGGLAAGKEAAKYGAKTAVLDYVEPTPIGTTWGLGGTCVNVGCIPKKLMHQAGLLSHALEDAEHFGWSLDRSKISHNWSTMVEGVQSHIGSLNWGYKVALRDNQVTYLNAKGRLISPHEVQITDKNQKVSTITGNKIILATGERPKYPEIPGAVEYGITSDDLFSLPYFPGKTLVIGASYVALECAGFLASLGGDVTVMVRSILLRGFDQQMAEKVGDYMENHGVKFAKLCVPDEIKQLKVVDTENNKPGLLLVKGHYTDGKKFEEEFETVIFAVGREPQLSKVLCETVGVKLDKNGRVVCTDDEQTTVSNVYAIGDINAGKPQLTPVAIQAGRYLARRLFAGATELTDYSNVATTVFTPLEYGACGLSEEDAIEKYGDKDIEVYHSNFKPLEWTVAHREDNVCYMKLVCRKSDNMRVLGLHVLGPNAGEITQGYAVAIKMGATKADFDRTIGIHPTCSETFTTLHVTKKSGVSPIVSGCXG
Procedure: TGR was incubated at room temperature with inhibitor in the presence or absence of 100 µM NADPH for 15 min. DTNB (3 mM) and NADPH (100 µM) were added, and the reaction was monitored at A412 for 5 min to determine reaction rate. The assay was done in triplicate.

TGR [2] = target: T2, TGR (Schistosoma mansoni, UniProt Q962Y6, X597U); test: NADPH consumption (oxidase activity); type: biochemical, S. mansoni; settings: replicates
T2 construct: made in house
Outline: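 Enzyme (500 nM) preincubated 30 min with compound (TRi-1, Stattic 50 µM; AF 20 µM) and 100 µM NADPH, desalted, then mixed with 100 µM NADPH; NADPH consumption read at 340 nm. Other compounds (50 µM) run without desalting, preincubation 30 min or 2 h.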

[3] = test system: S. mansoni adult worms in mice; test: Schistosomicidal efficacy in infected mice, adult worms (42 d.p.i.); type: in vivo; settings: for Egg burden, Treated, individual mice / Worm burden, Treated, individual mice: Adult worm, listed as 8VP192; for Egg burden, Treated, individual mice: eggs per 50 mg liver (Fig. 6); for decrease in egg burden / decrease in worm burden: mice
Procedure: To assess the efficacy of the compounds in vivo against juvenile and adult worms, five female Swiss-Webster mice were randomly assigned for the control and experiment groups using a randomization tool embedded in GraphPad Prism. Mice were percutaneously exposed for 1 h to about 80 S. mansoni cercariae. Three- and six-weeks post infection, respectively, for juvenile and adult worms, mice were treated depending on their weight with formulations of the compounds, while the control mice received only the vehicle. Compounds were formulated with 10% DMSO and 10% Tween-80, and vortexed to obtain a uniform mixture. The mixture was sonicated twice for 5 min each time using a digital ultrasonic cleaner heated to 50 °C. Sodium chloride 0.9% (80% normal saline) was added to the mixture, briefly vortexed and sonicated one more time using the same conditions as previous. The investigators were blinded by which group of mice received a treatment and the vehicle, as injection was done by technicians from the Comparative Research Center of Rush University Medical Center. Using a 26 G, 3/8 in intradermal bevel needle, each mouse was administered intraperitoneally with 100 µl of the formulated compound suspension at 50 mg/kg, 100 mg/kg and 200 mg/kg. Mice treated three weeks post infection for juvenile worms were euthanized three weeks post treatment and mice treated six weeks post infection were euthanized one week post treatment with 0.018 ml of Euthasol and 5.85 mg/ml heparin and perfused. The mesenteric and hepatic portal veins of the mice were carefully scanned under the microscope to extract any remaining S. mansoni adult worms and worm burdens were determined. Egg burden was determined by weighing 50 mg of liver tissue from each of treated and control mice. The liver tissues were digested with 5% KOH at 37 °C overnight and washed twice with PBS. The number of eggs per 50 mg of liver tissue was determined using a Keyence BZ-X800 microscope using the egg autofluorescence.

[4] = 1 x 100 mg/kg i.p. at 42 d.p.i.
[5] = 2 x 100 mg/kg i.p. (1: bid at 42 d.p.i.; 6: at 42 and 45 d.p.i.)

C#CCN(Cc1nc(-c2ccccc2)oc1C)[C@@H]1C[C@@H]2C[C@H]([C@H]1C)C2(C)C [Compound 6]
Rate, no NADPH (TGR [1]; preincubation no NADPH): 0.02684 and 0.02786 and 0.03567
Rate, with NADPH (TGR [1]; preincubation with NADPH): 0.00166 and 0.0006764 and 0.001495
NADPH consumption (rate/ΔOD340) (TGR [2]): -0.0004895 and -0.0006543 and -0.0006565
Egg burden, Treated, individual mice ([3]; 1 x 100 mg/kg): 2001 and 2098 and 2074 and 2073
Worm burden, Treated, individual mice ([3]; 1 x 100 mg/kg): 18 and 19 and 11 and 14 and 12
Egg burden, Treated, individual mice ([3]; 2 x 100 mg/kg): 2011 and 2073 and 2001 and 2098 and 2074
Worm burden, Treated, individual mice ([3]; 2 x 100 mg/kg): 23 and 26 and 25 and 20 and 22
decrease in egg burden [3, 4]: 3% and 2.8%
decrease in worm burden [3, 4]: 34% and 33.9%
decrease in egg burden [3, 5]: 18% and 18.2%
decrease in worm burden [3, 5]: 38% and 38.39%

Reference: paper PMC10287695, “Non-covalent inhibitors of thioredoxin glutathione reductase with schistosomicidal activity in vivo” (Nature Communications, 2023)
